Experimental findings from ChEMBL document CHEMBL5252668, “Targeting the "Undruggable" Driver Protein, KRASG12D, as Potential Therapy in Prostate Cancer” (ACS Med Chem Lett, 2023) are described below.

Experiment [1] deals with T1, GTPase KRas (Homo sapiens, UniProt P01116, G12D).
In experiment [2] the target is T1, GTPase KRas. This is another data set of the same source.

T1 sequence (P01116 whole entry G12D): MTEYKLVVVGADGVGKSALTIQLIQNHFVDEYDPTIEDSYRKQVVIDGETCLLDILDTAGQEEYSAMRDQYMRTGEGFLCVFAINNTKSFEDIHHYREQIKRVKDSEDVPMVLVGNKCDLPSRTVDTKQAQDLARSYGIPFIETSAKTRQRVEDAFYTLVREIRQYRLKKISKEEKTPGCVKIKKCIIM

Take `Oc1cc(-c2ncc3c(N4CCC[C@]5(CCO5)C4)nc(OC[C@@]45CCCN4C[C@H](F)C5)nc3c2F)c2c(Cl)c(F)ccc2c1`: the figures for the half-inhibitory concentration (IC50) against GTPase KRas [1] and on GTPase KRas [2] were 1 nM and 3 nM, respectively.

Regarding `Oc1cc(-c2ncc3c(N4CCCC5(CCO5)C4)nc(OC[C@@]45CCCN4C[C@H](F)C5)nc3c2F)c2c(F)c(F)ccc2c1` (stereo not given in full), the IC50 on GTPase KRas [1] was determined as 2 nM; at GTPase KRas [2], 9 nM.

Regarding `C#Cc1c(F)ccc2cc(O)cc(-c3ncc4c(N5CCCC6(CCO6)C5)nc(OC[C@@]56CCCN5C[C@H](F)C6)nc4c3F)c12` (stereo not given in full), the values for the IC50 against GTPase KRas [1] and at GTPase KRas [2] were 1 nM and 43 nM, respectively.

On to `CCc1c(F)ccc2cc(O)cc(-c3ncc4c(N5CCCC6(CCO6)C5)nc(OC[C@@]56CCCN5C[C@H](F)C6)nc4c3C)c12` (stereo not given in full), for which the IC50 against GTPase KRas [1] worked out at 4 nM; against GTPase KRas [2], 7 nM.

`CCc1c(F)ccc2cc(O)cc(-c3ncc4c(N5CCCC6(CC(=O)N6)C5)nc(OC[C@@]56CCCN5C[C@H](F)C6)nc4c3F)c12` (stereo not given in full): the IC50 on GTPase KRas [1] came to 2 nM; against GTPase KRas [2], 44 nM.

For `CCc1cccc2cc(O)cc(-c3ncc4c(N5CCCC6(CCO6)C5)nc(OC[C@@]56CCCN5C[C@H](F)C6)nc4c3F)c12` (stereo not given in full), the half-maximal inhibitory concentration (IC50) against GTPase KRas [1] was determined as 3 nM; against GTPase KRas [2], 11 nM.

Regarding `Oc1cc(-c2ncc3c(N4CCCC5(CC(O)C5)C4)nc(OC[C@@]45CCCN4C[C@H](F)C5)nc3c2F)c2c(F)c(F)ccc2c1` (stereo not given in full), the 50% inhibitory concentration (IC50) turned out to be 2 nM against GTPase KRas [1] and 119 nM at GTPase KRas [2].

With `CCc1cccc2cc(O)cc(-c3ncc4c(N5CCCC6(CC(O)C6)C5)nc(OC[C@@]56CCCN5C[C@H](F)C6)nc4c3F)c12` (stereo not given in full), the IC50 came to 1 nM against GTPase KRas [1] and 22 nM on GTPase KRas [2].

Take `CCc1c(F)ccc2cc(O)cc(-c3ncc4c(N5CC(O)CC6(CC6)C5)nc(OC[C@@]56CCCN5C[C@H](F)C6)nc4c3F)c12` (stereo not given in full): the IC50 was determined as 2 nM on GTPase KRas [1] and 34 nM against GTPase KRas [2].

Regarding `Oc1cc(Cl)c(C2CC2)c(-c2ncc3c(N4CCCC5(CCO5)C4)nc(OC[C@@]45CCCN4C[C@H](F)C5)nc3c2F)c1` (stereo not given in full), the IC50 stood at 2 nM against GTPase KRas [1] and 66 nM against GTPase KRas [2].
